Here are results for 16 molecules from patent US8093273B2, “Flavanoids and isoflavanoids for the prevention and treatment of cardiovascular diseases” (Resverlogix Corp., priority 2004, dated 2012).

Series [1] concerns human ApoA-I promoter. Put plainly: ApoA-I promoter induction in HepG2 liver cells (pAI.474-Luc luciferase reporter). Type of series: cell-based. To be noted: average values at 15 μM, 48 hours incubation. As to the method:
This study determined whether compounds of the invention have an effect on ApoA-I promoter activity expression in HepG2 cells, a liver cell line. Cells were grown under conditions recommended by the ATCC and summarized by Wong.
The promoter region of the gene encoding human ApoA-I was isolated and ligated upstream the structure gene of firefly luciferase to construct a reporter plasmid (pAI.474-Luc). The reporter plasmid, along with pRSV-β-galactosidase (as a control for transfection efficiency), were co-transfected into HepG2 cells. The cells were then incubated in an MEM selection media containing 20% fetal calf serum supplemented with G418 (final concentration: 0.5 mg/mL, Gibco) to give established strains that stably express from the reporter gene. The strains were seeded to a 6-well culture plates and incubated for 48 hours at 37° C. under 5% carbon dioxide. Cells were starved for 24 hrs in MEM selection media containing 0.5% FBS. Then, a solution of the compounds of the invention in DMSO (or other appropriate solvent) was added to the wells at a final concentration of 0 to 100 μM in MEM selection media containing 0.5% FBS.
(§1) After further incubation for 48 hours, the cells were harvested and lysed using Reporter Lysis Buffer (PROMEGA E3971), and 50 μL of luciferase assay reagent (PROMEGA E4550 Luciferase Reporter 1000 assay system) were added to measure luciferase activity with a luminometer (Fluoroskan Ascent FL from Thermo electron Corporation). Luciferase activity was normalized to lysate protein concentrations, measured using Bradford Reagent (Biorad Protein Assay reagent Cat #500-0006).

Series [2] can be described thus: Solubility analysis in PBS (HPLC-UV). The series is classed as physicochemical. As to conditions: aqueous buffer, thermodynamic from solid; 1 mg in 1 mL PBS, sonicated 1 hour, 25° C. for 3 hrs. The method, then: Samples were then centrifuged at 14,000 rpm for 6 minutes at room temperature. The supernatant was diluted with acetonitrile and was removed for analysis. Analysis was performed using HPLC-UV with 7-point standard curve to determine the concentration. The average concentration calculated is regarded as the solubility (μM).

Series [3] concerns human ApoA-I promoter. Put plainly: ApoA-I promoter induction in Caco-2 intestinal cells (pAI.474-Luc luciferase reporter). The series is classed as cell-based. To be noted: Caco-2 cells, 15 μM, 48 hours incubation, luciferase activity vs control samples. The method, then:
To examine the effects of compounds of the invention to increase ApoA-I expression, Caco-2 cells, an intestinal cell line derived from human epithelial intestinal cells, were grown under conditions recommended by the ATCC and summarized in United States Patent Application Publication No. 20040033480 (“Wong”), incorporated herein by reference.
Briefly, the promoter region of the gene encoding human ApoA-I was isolated and ligated upstream of the firefly luciferase gene to construct the reporter plasmid pAI.474-Luc. This reporter plasmid and pRSV-β-galactosidase (as a control for transfection efficiency) were co-transfected to Caco-2 cells. The Caco-2 cells were then incubated in a MEM selection media containing 20% fetal calf serum supplemented with G418 (final concentration: 0.5 mg/mL, Gibco) to give established strains that stably express from the reporter gene. The strains were seeded in 6-well culture plates and incubated for 48 hours at 37° C. under 5% carbon dioxide. Cells were starved for 24 hrs in MEM selection media containing 0.5% FBS. Then, a solution of a compound of the invention in DMSO or other appropriate solvent was added to the wells at a final concentration of 0 to 100 μM in MEM selection media containing 0.5% FBS.
as §1, with “system) was” for “system) were”, “Reagent (BioRad” for “Reagent (Biorad”, “#500-0006). The luciferase activity of cells treated with various concentrations of test compounds was compared to that of solvent control sample (i.e., solvent without any compound of the present invention added) and untreated control sample.” for “#500-0006).”

The test system of another series is hApoA-I transgenic mice. Put plainly: hApoA-I transgenic mice, oral gavage for 14 days. Type of series: in vivo. As to conditions: for change in vivo at 10 mg/kg: Mus musculus, po, 336 h, Table 6 third group, 10 mg/kg BID 14 days, relative to pretreatment, Control 3 (F-101) (6.32), read-out: ApoA-I (% change). The source says: To test whether the efficacy of compounds of the invention observed in vitro extended to an in vivo model, transgenic mice carrying multiple copies of the human ApoA-I gene (C57BI/6-tgn(apoa1)1 rub, Jackson Laboratory, Bar Harbor, Me.) were exposed to representative compounds of the invention. The exogenous human ApoA-I gene in these mice enables them to express the human ApoA-I protein under the control of this promoter.
Seven to eight week old male mice, transgenic for human ApoA-I were housed five per cage (10″×20″×8″ with aspen chip bedding) with pelleted Rodent chow [Purina 5001] and water available at all times. After an acclimation period of 1 week, animals were individually identified by numbering on tail and weighed. Mice were pre bled via the retro-orbital plexus, and 150 μl of blood was collected in 1.5 ml Eppendorf tube containing 1 μl of heparin and chilled on ice. Plasma was collected after centrifuging the whole blood at 14000 rpm [TOMY high speed micro-refrigerated centrifuge NTX-150] for 10 minutes at 4° C. and frozen at −80° C. Plasma was analyzed for: human ApoA-I by a human ApoA-I enzyme-linked Immunoassay [Direct Sandwich ELISA Calbiochem Cat#178422, Calbiochem Cat#178452, lot #B9076, Calbiochem Cat #178470 conjugated to Horse Radish Peroxidase (Cedarlane Cat#80220)]; total cholesterol [Ponte scientific reagents: # C7509-STD, #L7580-18, # C7510]; and triglyceride [Pointe Scientific Reagents: # 7532-STD, # L7580-18, #7532]. All samples were measured in triplicates and expressed as mg/dl. Mice were grouped based on the above plasma parameters and having an average body weight of 25 gm.
Two days following pre-bleed, mice were dosed by oral gavage daily for 14 days using a 20 gauge, 11/2″ curved disposable feeding needle [Popper & Sons]; when BID, mice were gavaged morning and afternoon (8 am and 5 pm); when SID mice were gavaged in morning (8 am). Compounds were prepared each day in vehicle. Test article(s), a positive control fenofibrate, and vehicle were dosed at volume of 5 mL/kg of body weight as a suspension (0.1 mL/20 g mouse). Fenofibrate was obtained commercially [SIGMA #F 6020]. Mice weights were recorded on day 1, 4, 7, 10, 12, and 15. On day 15, mice were weighed and fasted for 4 hours, sacrificed by inhalation of CO2 and blood was obtained via cardiac puncture (0.7-1.0 ml). Plasma was collected and frozen at −80° C. Samples were assayed for ApoA-I, total cholesterol, triglyceride and HDL-C by HPLC [Polaris 200 with an auto sampler Prostar 410 from Varian on a Superose 6 10/30 column from Amersham]. Samples were sent for NMR analysis [LipoScience] to identify particle size and subclass for lipoproteins. During necropsy, liver, brown fat, and the whole of small and large intestines were collected, cleaned with cold PBS and frozen at −80° C. for further analysis of compound levels. Variation between studies, in ApoA-I changes, was observed. Therefore, a relative comparison between individual(s) in the study groups was used.
4′-hydroxyflavone (10 mg/kg of body weight), 4-(4-oxo-4H-chromen-2-yl)phenyl nicotinate (Example 71) (10 mg/kg of body weight) and fenofibrate (100 mg/kg of body weight) were BID administered to hApoA-I transgenic mice daily for fourteen days by oral gavage in 0.5% Methylcellulose (w/v)/1% Tween 80 (w/v). Plasma was assayed for ApoA-I (FIG. 3A), HDL cholesterol and total cholesterol (FIG. 3B) and percent weight gain (FIG. 3C).
4′-hydroxyflavone (3 mg/kg of body weight), 4′-hydroxyflavone (10 mg/kg of body weight), 4′-hydroxyflavone (30 mg/kg of body weight), 2-(4-Hydroxy-phenyl)-pyrano[2,3-b]pyridin-4-one (10 mg/kg of body weight), and fenofibrate (100 mg/kg of body weight) were BID administered to hApoA-I transgenic mice daily for fourteen days by oral gavage in 0.5% methylcellulose (w/v)/1% Tween 80 (w/v). In this experiment plasma was assayed for ApoA-I. […]

Another series is described as follows: Caco-2 permeability. The series is classed as in vitro ADME, human. To be noted: human, Caco-2. The source says: The Caco-2 cell drug transport model is widely used for screening compounds in drug discovery to assess intestinal transport and predict absorption rates.

Converted amounts (≈) assume the structure as drawn.

`O=c1cc(-c2ccc(O)c(F)c2)oc2ccccc12` [Example 12, 2-(3-Fluoro-4-hydroxyphenyl)chromen-4-one]: the melting point was 275 to 276 °C. Further, in the series on human ApoA-I promoter [1], the “ApoA-I Promoter Induction” value is on record as “increased”.
In turn, `CNc1nc(-c2ccc(O)cc2)cc2cc(OC)cc(OC)c12.Cl` [Example 82, 4-(6,8-dimethoxy-1-(methylamino)isoquinolin-3-yl)phenol hydrochloride] displayed a melting point of 250 to 253 °C. In series [2], this molecule had a solubility at 3 h of 66.8 µM. The “ApoA-I Promoter Induction” value in the series with human ApoA-I promoter [3] is “increased”.
For the molecule `O=C(Oc1ccc(-c2cc(=O)c3ccccc3o2)cc1)c1cccnc1` [Example 71, 4-(4-oxo-4H-chromen-2-yl)phenyl nicotinate], the “plasma ApoA-I, net % change over vehicle” value in the series with hApoA-I transgenic mice (Experiment A, 10 mg/kg BID oral gavage, 14 days, 0.5% methylcellulose/1% Tween 80) is 12.82%. Also, in the series on hApoA-I transgenic mice (Experiment A, 10 mg/kg BID, day 15, male mice), the “liver weight gain normalized to body weight, compared to vehicle” value was “minor changes”. Besides, the “ApoA-I Promoter Induction” value with human ApoA-I promoter [3] and in the series with human ApoA-I promoter [1] was “increased” each time.
In turn, `Oc1ccc(-c2cc3ccccc3cn2)cc1` [Example 54, 4-isoquinolin-3-yl-phenol] yielded a melting point of 218 to 219 °C. The “ApoA-I Promoter Induction” value in the series with human ApoA-I promoter [3] was “increased”. Also, in the series on human ApoA-I promoter [1], the “ApoA-I Promoter Induction” value is “increased”. The molecule further yielded a Papp in “Caco-2 permeability” of 41.1 nm/s.
With `O=c1cc(-c2ccc(O)cn2)oc2ccccc12` [Example 46, 2-(5-hydroxy-pyridin-2-yl)-chromen-4-one], the change in vivo at 10 mg/kg in the series on hApoA-I transgenic mice was 5.62%. In addition, in the series with human ApoA-I promoter [3], the “ApoA-I Promoter Induction” value is “increased”. For the same molecule, in the series “Caco-2 permeability”, the Papp worked out at 12.3 nm/s.
`COc1cc(-c2cc(=O)c3cccnc3o2)ccc1O` [Example 43, 2-(4-hydroxy-3-methoxyphenyl)-4H-pyrano[2,3-b]pyridine-4-one] yielded a melting point of 253 to 255 °C. This molecule also had a solubility at 3 h in series [2] of 47.1 µM (≈ 12.7 µg/mL). In addition, in the series with human ApoA-I promoter [3], the “ApoA-I Promoter Induction” value was “increased”.
For `Nc1cc(O)ccc1-c1cc(=O)c2ccccc2o1` [Example 3, 2-(2-amino-4-hydroxy-phenyl)-chromen-4-one], in the series on human ApoA-I promoter [1], the “ApoA-I Promoter Induction” value is given as “increased”. This molecule also showed a Papp in the series “Caco-2 permeability” of 74.2 nm/s.
`Cc1cc(-c2cc(=O)c3ccccc3o2)cc(C)c1O` [Example 7, 2-(4-hydroxy-3,5-dimethylphenyl)chromen-4-one]: the melting point was in the range of 255 to 256 °C. Besides, the “ApoA-I Promoter Induction” value in the series on human ApoA-I promoter [3] was “increased”. Besides, the Papp in “Caco-2 permeability” worked out at 6.95 nm/s.
For the molecule `O=C(Oc1ccc(-c2cc(=O)c3c(OC(=O)c4cccnc4)cc(OC(=O)c4cccnc4)cc3o2)cc1)c1cccnc1` [Example 74, 2-(4-Nicotinoyloxy)phenyl)-oxo-4H-chromene-5,7-diyl dinicotinate], the “ApoA-I Promoter Induction” value in the series with human ApoA-I promoter [3] and in the series with human ApoA-I promoter [1] was “increased” in each case.
Turning to `O=C(Oc1ccc(C2CC(=O)c3c(OC(=O)c4cccnc4)cc(OC(=O)c4cccnc4)cc3O2)cc1)c1cccnc1` (centres unmarked) [Example 73, 2-(4-(Nicotinoyloxy)phenyl)-4-oxochroman-5,7-diyl dinicotinate], in the series with human ApoA-I promoter [1], the “ApoA-I Promoter Induction” value is reported as “no increase”.
`O=c1cc(-c2ccc(CO)cc2)oc2ccc(O)cc12` [Example 14, 6-Hydroxy-2-(4-hydroxymethylphenyl)chromen-4-one] returned a melting point of 262 to 265 °C. For the same molecule, in the series on human ApoA-I promoter [1], the “ApoA-I Promoter Induction” value was “increased”.
Turning to `O=c1cc(-c2ccncc2)oc2ccccc12` [Example 47, 2-pyridin-4-yl-chromen-4-one], the change in vivo at 10 mg/kg with hApoA-I transgenic mice was 22.7%. For the same molecule, in the series with human ApoA-I promoter [3], the “ApoA-I Promoter Induction” value is “increased”. In the series “Caco-2 permeability”, the Papp came to 64.8 nm/s.
Take `O=c1cc(-c2ccc(O)cc2)oc2cccc(O)c12` [4′,5-dihydroxyflavone]: in the series with human ApoA-I promoter [1], the “ApoA-I Promoter Induction” value is on record as “increased”.
Turning to `O=c1c(O)c(-c2ccc(O)c(O)c2)oc2cc(O)cc(O)c12` [3,5,7-trihydroxy-2-(3,4-dihydroxyphenyl)-4H-chromen-4-one, reference compound], the “ApoA-I Promoter Induction” value in the series with human ApoA-I promoter [1] is recorded as “increased”.
Molecule `O=c1cc(-c2ccc(O)cc2)oc2ccc(CO)cc12` [Example 11, 6-Hydroxymethyl-2-(4-hydroxyphenyl)chromen-4-one] displayed a melting point of 246 to 247 °C. Further, the “ApoA-I Promoter Induction” value in the series with human ApoA-I promoter [1] was “increased”.
Take `O=C1CC(c2ccc(O)cc2)Oc2cc(O)cc(O)c21` (centres unmarked) [5,7-Dihydroxy-2-(4-hydroxyphenyl)-chroman-4-one]: the “ApoA-I Promoter Induction” value in the series on human ApoA-I promoter [3] and in the series with human ApoA-I promoter [1] was “increased” throughout.
